Results taken from PubChem BioAssay (NCI).
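A five-concentration, 48-hour dose response in 96-well plates underlies each endpoint, interpolated linearly between surrounding concentrations. At the TGI there is no net growth.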

Legend:
Assay in all cases: DTP human tumour cell line panel, 48 h
786-0 renal = test system: 786-0 renal
A498 renal = test system: A498 renal
A549 NSCLC = test system: A549 NSCLC
ACHN renal = test system: ACHN renal
BT-549 breast = test system: BT-549 breast
CAKI-1 renal = test system: CAKI-1 renal
CCRF-CEM leukemia = test system: CCRF-CEM leukemia
COLO 205 colon = test system: COLO 205 colon
DU-145 prostate = test system: DU-145 prostate
EKVX NSCLC = test system: EKVX NSCLC
HCC-2998 colon = test system: HCC-2998 colon
HCT-116 colon = test system: HCT-116 colon
HCT-15 colon = test system: HCT-15 colon
HL-60(TB) leukemia = test system: HL-60(TB) leukemia
HOP-62 NSCLC = test system: HOP-62 NSCLC
HOP-92 NSCLC = test system: HOP-92 NSCLC
HS 578T breast = test system: HS 578T breast
HT29 colon = test system: HT29 colon
IGROV1 ovarian = test system: IGROV1 ovarian
K-562 leukemia = test system: K-562 leukemia
KM12 colon = test system: KM12 colon
LOX IMVI melanoma = test system: LOX IMVI melanoma
M14 melanoma = test system: M14 melanoma
MALME-3M melanoma = test system: MALME-3M melanoma
MCF7 breast = test system: MCF7 breast
MDA-MB-231 breast = test system: MDA-MB-231 breast
MDA-MB-435 = test system: MDA-MB-435
MDA-N = test system: MDA-N
MOLT-4 leukemia = test system: MOLT-4 leukemia
NCI-H226 lung = test system: NCI-H226 lung
NCI-H23 lung = test system: NCI-H23 lung
NCI-H522 lung = test system: NCI-H522 lung
NCI/ADR-RES ovarian = test system: NCI/ADR-RES ovarian
OVCAR-3 ovarian = test system: OVCAR-3 ovarian
OVCAR-4 ovarian = test system: OVCAR-4 ovarian
OVCAR-5 ovarian = test system: OVCAR-5 ovarian
OVCAR-8 ovarian = test system: OVCAR-8 ovarian
PC-3 prostate = test system: PC-3 prostate
RPMI-8226 leukemia = test system: RPMI-8226 leukemia
RXF 393 renal = test system: RXF 393 renal
SF-268 CNS = test system: SF-268 CNS
SF-295 CNS = test system: SF-295 CNS
SF-539 CNS = test system: SF-539 CNS
SK-MEL-2 melanoma = test system: SK-MEL-2 melanoma
SK-MEL-28 melanoma = test system: SK-MEL-28 melanoma
SK-MEL-5 melanoma = test system: SK-MEL-5 melanoma
SN12C renal = test system: SN12C renal
SNB-19 CNS = test system: SNB-19 CNS
SW-620 colon = test system: SW-620 colon
T-47D breast = test system: T-47D breast
TK-10 renal = test system: TK-10 renal
U251 CNS = test system: U251 CNS
UACC-257 melanoma = test system: UACC-257 melanoma
UACC-62 melanoma = test system: UACC-62 melanoma
UO-31 renal = test system: UO-31 renal
NCI-H460 lung = test system: NCI-H460 lung
SK-OV-3 ovarian = test system: SK-OV-3 ovarian
SNB-75 CNS = test system: SNB-75 CNS

Q: What does the source list for COC(=O)[C@@H](Nc1ccccc1)[C@@]1(C(=O)OC)SC12c1ccccc1-c1ccccc12?
A: TGI (786-0 renal): > 100 µM; TGI (A498 renal): > 100 µM; TGI (A549 NSCLC): > 100 µM; TGI (ACHN renal): > 100 µM; TGI (BT-549 breast): > 100 µM; TGI (CAKI-1 renal): > 100 µM; TGI (CCRF-CEM leukemia): > 100 µM; TGI (COLO 205 colon): > 100 µM; TGI (DU-145 prostate): > 100 µM; TGI (EKVX NSCLC): > 100 µM; TGI (HCC-2998 colon): > 100 µM; TGI (HCT-116 colon): > 100 µM; TGI (HCT-15 colon): > 100 µM; TGI (HL-60(TB) leukemia): > 100 µM; TGI (HOP-62 NSCLC): > 100 µM; TGI (HOP-92 NSCLC): > 100 µM; TGI (HS 578T breast): > 100 µM; TGI (HT29 colon): > 100 µM; TGI (IGROV1 ovarian): > 100 µM; TGI (K-562 leukemia): > 100 µM; TGI (KM12 colon): > 100 µM; TGI (LOX IMVI melanoma): > 100 µM; TGI (M14 melanoma): > 100 µM; TGI (MALME-3M melanoma): > 100 µM; TGI (MCF7 breast): > 100 µM; TGI (MDA-MB-231 breast): > 100 µM; TGI (MDA-MB-435): > 100 µM; TGI (MDA-N): > 100 µM; TGI (MOLT-4 leukemia): > 100 µM; TGI (NCI-H226 lung): > 100 µM; TGI (NCI-H23 lung): > 100 µM; TGI (NCI-H522 lung): 62.5 µM; TGI (NCI/ADR-RES ovarian): > 100 µM; TGI (OVCAR-3 ovarian): > 100 µM; TGI (OVCAR-4 ovarian): > 100 µM; TGI (OVCAR-5 ovarian): > 100 µM; TGI (OVCAR-8 ovarian): > 100 µM; TGI (PC-3 prostate): > 100 µM; TGI (RPMI-8226 leukemia): > 100 µM; TGI (RXF 393 renal): > 100 µM; TGI (SF-268 CNS): > 100 µM; TGI (SF-295 CNS): > 100 µM; TGI (SF-539 CNS): > 100 µM; TGI (SK-MEL-2 melanoma): > 100 µM; TGI (SK-MEL-28 melanoma): > 100 µM; TGI (SK-MEL-5 melanoma): > 100 µM; TGI (SN12C renal): > 100 µM; TGI (SNB-19 CNS): > 100 µM; TGI (SW-620 colon): > 100 µM; TGI (T-47D breast): > 100 µM; TGI (TK-10 renal): > 100 µM; TGI (U251 CNS): > 100 µM; TGI (UACC-257 melanoma): > 100 µM; TGI (UACC-62 melanoma): > 100 µM; TGI (UO-31 renal): > 100 µM

Q: With CC1(C)OCC(C2CCC3(C)C4=CCC5C(C)(C)C(O)CCC5(C)C4CCC23C)CC(O)C1O (stereo unspecified) as the compound, how does the TGI (786-0 renal) read?
A: Its TGI is 28.7 µM.

Q: What about the TGI (A498 renal) of the same compound?
A: Its TGI is 42.6 µM.

Q: And the TGI (A549 NSCLC)?
A: The TGI was 36 µM.

Q: And the TGI (ACHN renal)?
A: The TGI was 45.9 µM.

Q: And the TGI (BT-549 breast)?
A: The TGI was 32.9 µM.

Q: And the TGI (CAKI-1 renal)?
A: Its TGI is 27.5 µM.

Q: And the TGI (CCRF-CEM leukemia)?
A: Its TGI is 68.7 µM.

Q: What about the TGI (COLO 205 colon) of the same compound?
A: The TGI was 43.5 µM.

Q: And the TGI (DU-145 prostate)?
A: Its TGI is 29 µM.

Q: What about the TGI (EKVX NSCLC) of the same compound?
A: The TGI was 28.5 µM.

Q: What about the TGI (HCC-2998 colon) of the same compound?
A: The TGI was 32.3 µM.

Q: And the TGI (HCT-116 colon)?
A: The TGI was 27.3 µM.

Q: What about the TGI (HCT-15 colon) of the same compound?
A: The TGI was 32.8 µM.

Q: And the TGI (HL-60(TB) leukemia)?
A: The TGI was 56.7 µM.

Q: And the TGI (HOP-92 NSCLC)?
A: The TGI was 36.4 µM.

Q: And the TGI (HS 578T breast)?
A: Its TGI is 44.7 µM.

Q: What about the TGI (HT29 colon) of the same compound?
A: The TGI was 33.4 µM.

Q: What about the TGI (IGROV1 ovarian) of the same compound?
A: The TGI was 33.1 µM.

Q: And the TGI (K-562 leukemia)?
A: Its TGI is 21.6 µM.

Q: And the TGI (KM12 colon)?
A: Its TGI is 28.1 µM.

Q: What about the TGI (LOX IMVI melanoma) of the same compound?
A: Its TGI is 31.7 µM.

Q: What about the TGI (M14 melanoma) of the same compound?
A: The TGI was 35.4 µM.

Q: What about the TGI (MALME-3M melanoma) of the same compound?
A: The TGI was 30.6 µM.

Q: What about the TGI (MCF7 breast) of the same compound?
A: The TGI was 47.3 µM.

Q: What about the TGI (MDA-MB-231 breast) of the same compound?
A: Its TGI is 35.7 µM.

Q: What about the TGI (MDA-MB-435) of the same compound?
A: Its TGI is 31.8 µM.

Q: And the TGI (MDA-N)?
A: Its TGI is 34.5 µM.

Q: What about the TGI (MOLT-4 leukemia) of the same compound?
A: Its TGI is 35.9 µM.

Q: And the TGI (NCI-H226 lung)?
A: Its TGI is 32.9 µM.

Q: What about the TGI (NCI-H23 lung) of the same compound?
A: Its TGI is 38.2 µM.

Q: And the TGI (NCI-H460 lung)?
A: Its TGI is 41.4 µM.

Q: What about the TGI (NCI-H522 lung) of the same compound?
A: Its TGI is 36.3 µM.

Q: What about the TGI (NCI/ADR-RES ovarian) of the same compound?
A: Its TGI is 39.5 µM.

Q: What about the TGI (OVCAR-3 ovarian) of the same compound?
A: The TGI was 30 µM.

Q: And the TGI (OVCAR-4 ovarian)?
A: Its TGI is 32.3 µM.

Q: What about the TGI (OVCAR-5 ovarian) of the same compound?
A: The TGI was 36.2 µM.

Q: And the TGI (OVCAR-8 ovarian)?
A: Its TGI is 33.3 µM.

Q: What about the TGI (PC-3 prostate) of the same compound?
A: Its TGI is 26.6 µM.

Q: What about the TGI (RPMI-8226 leukemia) of the same compound?
A: Its TGI is 48.6 µM.

Q: What about the TGI (SF-268 CNS) of the same compound?
A: Its TGI is 37.6 µM.

Q: What about the TGI (SF-295 CNS) of the same compound?
A: The TGI was 35.6 µM.

Q: What about the TGI (SF-539 CNS) of the same compound?
A: The TGI was 39.9 µM.

Q: What about the TGI (SK-MEL-2 melanoma) of the same compound?
A: Its TGI is 32.5 µM.

Q: What about the TGI (SK-MEL-28 melanoma) of the same compound?
A: The TGI was 32.6 µM.

Q: And the TGI (SK-MEL-5 melanoma)?
A: The TGI was 28.7 µM.

Q: And the TGI (SK-OV-3 ovarian)?
A: The TGI was 35.5 µM.

Q: And the TGI (SN12C renal)?
A: The TGI was 36.2 µM.

Q: And the TGI (SNB-19 CNS)?
A: Its TGI is 29.5 µM.

Q: What about the TGI (SNB-75 CNS) of the same compound?
A: Its TGI is 29 µM.

Q: And the TGI (SW-620 colon)?
A: Its TGI is 37.4 µM.

Q: What about the TGI (T-47D breast) of the same compound?
A: Its TGI is 23.8 µM.

Q: What about the TGI (TK-10 renal) of the same compound?
A: The TGI was 28.7 µM.

Q: And the TGI (U251 CNS)?
A: The TGI was 31.3 µM.

Q: And the TGI (UACC-257 melanoma)?
A: The TGI was 30.6 µM.

Q: And the TGI (UACC-62 melanoma)?
A: Its TGI is 29.1 µM.

Q: What about the TGI (UO-31 renal) of the same compound?
A: Its TGI is 33.2 µM.
